In article PMC8803706, “Fibroblast activation protein targeted therapy using [^177Lu]FAPI-46 compared with [^225Ac]FAPI-46 in a pancreatic cancer model” (European Journal of Nuclear Medicine and Molecular Imaging, 2021):

Columns and labels:
PANC-1 xenograft = test: Treatment effect on tumour size in PANC-1 xenograft mice; format: in vivo; conditions: for relative ratio of the tumour size compared to the control group: day 40
Experimental: Male nude mice (BALB/cSlc-nu/nu) were purchased from Japan SLC Inc. (Hamamatsu, Japan). Animals were housed under a 12-h light/12-h dark cycle and allowed free access to food and water. The mice were injected with PANC-1 cells (1 × 10^7 cells) in a mixture of phosphate-buffered saline and Matrigel (0.1 mL, 1:1; BD Biosciences, Franklin Lakes, NJ, USA). Tumour xenograft models were evaluated 3 weeks after transplantation of PANC-1 cells (tumour volume = 716 ± 304 mm^3). Euthanasia was performed in the following conditions: (1) when the animals had unbearable suffering, (2) when a significant decrease in activity or a marked decrease in food and water intake was observed, and (3) at the end of the observation period (up to 44 days for [^177Lu]FAPI-46 and 32 days for [^225Ac]FAPI-46). Euthanasia was performed by deep anesthesia using isoflurane inhalation.
(§1) [^177Lu]FAPI-46 and [^225Ac]FAPI-46 were injected into PANC-1 xenograft mice via the tail vein (9 weeks old, body weight = 22.7 ± 2.1 g). Mice injected with [^177Lu]FAPI-46 were divided into four groups according to the injected dose: 3 MBq (3.2 ± 0.1 MBq, n = 6), 10 MBq (10.2 ± 0.5 MBq, n = 6), 30 MBq (30.5 ± 2.7 MBq, n = 6) and control (n = 4) groups. Mice injected with [^225Ac]FAPI-46 were divided into four groups: 3 kBq (2.9 ± 0.0 kBq, n = 3), 10 kBq (8.5 ± 1.1 kBq, n = 2), 30 kBq (30.5 ± 0.7 kBq, n = 6) and control (n = 7) groups. The tumour size and body weight were measured with a caliper using the elliptical sphere model calculation, three times per week during the observation period.

PANC-1 xenograft mice [1] = test: Biodistribution of [^177Lu]FAPI-46 and [^225Ac]FAPI-46 in PANC-1 xenograft mice (gamma counter); format: in vivo; conditions: for organs with relatively high accumulation / residence: 24 h post-injection; for clearance from organs: between 3 and 24 h post-administration
Experimental: [^177Lu]FAPI-46 (3.3 ± 0.1 MBq) and [^225Ac]FAPI-46 (12.5 ± 0.7 kBq) were injected into PANC-1 xenograft mice (9 weeks old, body weight = 23.9 ± 0.9 g, n = 12). After euthanasia by deep inhalation anesthesia with isoflurane, the brain, thyroid gland, salivary glands, lungs, heart, liver, spleen, pancreas, stomach, small intestine, large intestine, kidneys, bone (femur), bladder, testis, tumour, blood, and urine were removed and weighed at 3 h and 24 h. Radioactivity was also measured using a gamma counter (2480 Wizard^2 Gamma Counter, Perkin Elmer, USA).

[2] = Body weight of treated PANC-1 xenograft mice; format: in vivo
Experimental: as §1

PANC-1 xenograft mice [3] = test: Histological analysis (H&E) of kidneys and tumours after treatment; format: in vivo
Experimental: All mice were killed after [^18F]FAPI-74 PET imaging, and tumour xenografts were removed. Immunohistochemical staining was performed using anti-FAP alpha antibody (ab53066; Abcam, Cambridge, UK), and the Dako EnVision + System—HRP Labelled Polymer Anti-Rabbit (K4003) (DAKO Corp., Glostrup, Denmark). To evaluate toxicity, the kidneys were removed after the mice treated with [^177Lu]FAPI-46 and [^225Ac]FAPI-46 were sacrificed. The tissues were fixed in 10% neutral buffered formalin solution for paraffin blocks and stained with hematoxylin and eosin (H&E). Tumour blocks in all mice were also stained with H&E.

PANC-1 xenograft mice [4] = test: [^18F]FAPI-74 PET imaging in PANC-1 xenograft mice; format: in vivo
Experimental: PET images were acquired with a small animal PET scanner (Siemens Inveon PET/CT) 3 weeks after the implantation in PANC-1 xenograft mice (9 weeks old, body weight = 25.3 ± 1.2 g, n = 9). Under 2% isoflurane anesthesia, [^18F]FAPI-74 (12.4 ± 1.7 MBq) was injected in the tail vein. Dynamic PET scans (scan duration = 70 min, n = 2) were started simultaneously with the bolus injection. Static PET scans (scan duration = 10 min, n = 7) were performed 1 h after injection, followed by a CT scan. PET data were reconstructed into 2-min frames in the dynamic PET scan (2 min × 35 frames) and one frame in the static PET scan by three-dimensional ordered-subset expectation–maximization (16 subsets, 2 iterations), with attenuation and scatter correction. Regions of interest were drawn on the muscle, heart, lungs, liver, gallbladder, kidneys, intestine, and tumour. The mean standardized uptake values (SUVmean) and maximum standardized uptake values (SUVmax) were measured using PMOD (Version 4.0).

PANC-1 xenograft mice [5] = conditions: data not shown
[6] = static PET scan 1 h after i.v. injection

CN(CCCN1CCN(C(=O)CN2CCN(CC(=O)[O-])CCN(CC(=O)[O-])CCN(CC(=O)[O-])CC2)CC1)c1ccc2nccc(C(=O)NCC(=O)N3CC(F)(F)C[C@H]3C#N)c2c1.[225Ac+3] [[^225Ac]FAPI-46]
tumour-suppressive effects (PANC-1 xenograft; 3 kBq group): very mild
tumour growth after treatment (PANC-1 xenograft; 10 kBq and 30 kBq groups): suppressed immediately after treatment
tumour size vs control group (PANC-1 xenograft; 30 kBq group): significantly smaller than those in the control group on days 5–9 and day 25
day at which tumour regrowth began (PANC-1 xenograft; high dose): 12 days
organs with relatively high accumulation / residence (PANC-1 xenograft mice [1]): relatively higher residence time in the tumour, spleen, liver, stomach, small intestine, and large intestine
uptake in the liver (PANC-1 xenograft mice [1]; PANC-1 xenograft mice): high accumulation in the liver
clearance from organs (PANC-1 xenograft mice [1]): Most organs showed fast clearance
body weight recovery ([2]; 3 kBq and 10 kBq groups): recovery after day 7
body weight ([2]; all groups (3, 10, 30 kBq)): decreasing trend in the first week
histological changes in the kidneys (H&E) (PANC-1 xenograft mice [3]; day 32 after administration): No histological changes

CN(CCCN1CCN(C(=O)CN2CCN(CC(=O)[O-])CCN(CC(=O)[O-])CCN(CC(=O)[O-])CC2)CC1)c1ccc2nccc(C(=O)NCC(=O)N3CC(F)(F)C[C@H]3C#N)c2c1.[177Lu+3] [[^177Lu]FAPI-46]
tumour growth after administration (PANC-1 xenograft; 3, 10, 30 MBq, multiple comparisons across the doses): inhibitory trend after administration, although the changes were not statistically significant
therapeutic effects (time course) (PANC-1 xenograft; 3 MBq and 10 MBq groups): slower and were seen until day 12
relative ratio of the tumour size compared to the control group (PANC-1 xenograft; 3 MBq group): 0.62
relative ratio of the tumour size compared to the control group (PANC-1 xenograft; 10 MBq group): 0.56
time after administration at which tumour-suppressive effects were observed (PANC-1 xenograft; 30 MBq group): 9 days
relative ratio of the tumour size compared to the control group (PANC-1 xenograft; 30 MBq group): 0.27
%ID/g of the urine (PANC-1 xenograft mice [1]; 3 h post-administration, PANC-1 xenograft mice): 21.2 ± 15.3 %ID/g
organs with relatively high accumulation / residence (PANC-1 xenograft mice [1]): relatively high tracer accumulation was seen in the tumour, large intestine, and bone
uptake in the liver (PANC-1 xenograft mice [1]; PANC-1 xenograft mice): low
clearance from organs (PANC-1 xenograft mice [1]): Most organs showed fast clearance
body weight compared to the controls ([2]; 10 MBq and 30 MBq groups): slight decrease without statistical significance
histological changes in the kidneys (H&E) (PANC-1 xenograft mice [3]; day 44 after administration): No histological changes
histological changes in the tumour (H&E) compared to controls (PANC-1 xenograft mice [3]; day 44 after administration): No significant difference

N#C[C@@H]1CCCN1C(=O)CNC(=O)c1ccnc2ccc(OCCCN3CCN(C(=O)CN4CCN(CC(=O)[O-])CCN(CC(=O)[O-])CC4)CC3)cc12.[18F][Al+2] [[^18F]FAPI-74]
SUVmean in the gallbladder (PANC-1 xenograft mice [4]; [6]): 0.66 ± 0.15
SUVmean in the heart (PANC-1 xenograft mice [4]; [6]): 0.08 ± 0.01
SUVmean in the intestine (PANC-1 xenograft mice [4]; [6]): 0.61 ± 0.48
SUVmean in the kidneys (PANC-1 xenograft mice [4]; [6]): 0.39 ± 0.07
SUVmean in the liver (PANC-1 xenograft mice [4]; [6]): 0.14 ± 0.02
SUVmean in the muscle (PANC-1 xenograft mice [4]; [6]): 0.05 ± 0.01
SUVmean in the tumour (PANC-1 xenograft mice [4]; [6]): 0.24 ± 0.04
clearance and tumour washout on dynamic PET (PANC-1 xenograft mice [4]; time-activity curve): cleared rapidly by the kidneys but washout from the tumour occurred slowly

[177Lu+3].[Cl-].[Cl-].[Cl-] [[^177Lu]LuCl3, Lutetium-177 chloride]
lethal dose (PANC-1 xenograft mice [5]): 30 MBq
